Reference: patent US8071591B2, “7-cycloalkylaminoquinolones as GSK-3 inhibitors” (Kyorin Pharmaceutical Co., Ltd., priority 2009, dated 2011)

Key:
[1] = tested on: Male Crlj:CD1 (ICR) mice; experiment: Glucose tolerance study in fasted ICR mice; assay type: in vivo; conditions: 10 mg/kg orally, 30 minutes before oral glucose load (5 g/kg), fasted 7-week-old ICR mice
Protocol: Male Crlj:CD1 (ICR) mice were obtained from Charles River Laboratories Japan (Yokohama, Japan). All mice were given a standard diet (Clea Japan, Tokyo, Japan) and tap water ad libitum. All institutional guidelines for animal care and use were applied in this study. Test compounds were suspended in 0.3% carbozymethyl-cellulose sodium salt (CMC-Na; Sigma, St. Louis, Mo.). After fasting for 15-17 hours, the test compound (3, 10, 30, 100 or 300 mg/kg) or vehicle (0.3% CMC-Na) was orally administered to 7-week-old ICR mice. Glucose solution (5 g/kg) was orally administered at 30 minutes after test compound treatment. Blood samples were collected from tail vein using capillary tubes containing EDTA-2K before test compound treatment, and at 0, 0.5, 1, and 2 hours after glucose load. The blood samples were centrifuged at 2,500×g for 5 minutes and separated plasma was kept on ice and analyze in the same day. Plasma glucose levels were determined using the glucose CII-test (Wako Pure Chemical Industries, Osaka, Japan). The sum of plasma glucose levels at 0.5 and 1 hr after glucose load was compared to that of vehicle treatment, and results were presented as percent decrease.

[2] = tested on: HepG2 cells; experiment: GS activation: [3H]glucose incorporation into glycogen in HepG2 cells; assay type: cell-based; conditions: Homo sapiens, 3 hrs incubation with D-[2-3H]glucose, serum-free low-glucose DMEM, read-out: EC50 for glycogen synthesis
Protocol: HepG2 cells were obtained from the Japanese Collection of Research Bioresources and were grown in standard culture medium, a low-glucose Dulbecco's modified Eagle's medium (DMEM) containing 10% fetal calf serum supplemented with 100 U/mL penicillin and 100 μg/mL streptomycin, in a humidified and 5% CO2 atmosphere kept at 37° C. The HepG2 cells were harvested with 0.25% trypsin solution containing 1 mM EDTA, and were seeded on 12 well plates at 1×10^5 cells per well. Following a culture for 3 days, the cells were washed once with phosphate buffered saline (PBS), and were incubated with serum-free low-glucose DMEM supplemented with 100 U/mL penicillin and 100 μg/mL streptomycin. Following a culture for 3 hrs, GSK-3 inhibitor at various concentration and 2.5 μCi/mL D-[2-^3H]glucose (New England Nuclear, Boston, Mass., USA) were added to the serum-free low-glucose DMEM. A vehicle control of DMSO (0.3%, final concentration) was also used. Total volume per well of the reaction medium was 1.0 mL of serum-free low-glucose DMEM. After incubation at 37° C. for 3 hrs, medium was aspirated and cells were washed twice with PBS, and were added 0.25 mL of 1 N KOH containing 0.4 mg/mL carrier glycogen. […] [^3H]Glucose incorporation into glycogen was assessed using a liquid scintillation counter (Packard Instrument Co., Meriden, Conn., USA).

| SMILES | percent decrease of the sum of plasma glucose levels at 0.5 and 1 hr after glucose load vs vehicle [1] [%] | EC50 [2] [nM] |
| --- | --- | --- |
| C[C@H]1COc2c(N[C@@H]3CC[C@@H](c4ccccn4)C3)c(F)c(N)c3c(=O)c(C#N)cn1c23 [Example 2, (3S)-8-amino-9-fluoro-2,3-dihydro-3-methyl-7-oxo-10-[(1R,3R)-3-(2-pyridyl)cyclopentylamino]-7H-pyrido[1,2,3-de][1,4]benzoxazine-6-carbonitrile] | 22 |  |
| C[C@H]1COc2c(N[C@H]3CC[C@H](c4cccnc4)CC3)c(F)c(N)c3c(=O)c(C#N)cn1c23 [Example 7, (3S)-8-amino-9-fluoro-2,3-dihydro-3-methyl-7-oxo-10-[trans-4-(3-pyridyl)cyclohexylamino]-7H-pyrido[1,2,3-de][1,4]benzoxazine-6-carbonitrile] |  | ≤ 300 |
| C[C@H]1COc2c(NC3CCCC(c4cccnc4)C3)c(F)c(N)c3c(=O)c(C#N)cn1c23 (stereo in doubt) [Example 9, (3S)-8-amino-9-fluoro-2,3-dihydro-3-methyl-7-oxo-10-[trans-3-(3-pyridyl)cyclohexylamino]-7H-pyrido[1,2,3-de][1,4]benzoxazine-6-carbonitrile] |  | ≤ 300 |
